In patent US4634707A, “5-Pyrimidinecarboxamides and treatment of leukemia and tumors therewith” (Uniroyal Chemical Company, priority 1984, dated 1987):

What was measured:
[1] = tested on: Ehrlich Ascites carcinoma; conditions: Ehrlich Ascites carcinoma in mice; Chem. & Pharm. Bull. (Tokyo) 8, 1021-1028 (1960); cited from earlier work
L1210 leukemia = assay: NCI 3LE31, i.p.-implanted L1210 lymphoid leukemia; format: in vivo, DBA/2 mice
Protocol: The spectrum of antitumor activity of the compound of Example 1 was determined employing a number of standard National Cancer Institute (NCI) protocols. The antitumor activity was determined in vivo against several different tumors, employing various treatment schedules and routes of administration.
Samples of the test compounds of Examples 1-10 and a number of structurally-related control compounds were tested in accordance with National Cancer Institute test protocol 3LE31 (NCI Protocol 1.100, Cancer Chemotherapy Reports Part 3, Vol. 3, No. 2, September 1972) to determine the effects of the several compounds on i.p.-implanted L1210 leukemia (J. Nat'l. Cancer Inst. 13(5):1328, 1953). Each test involved implantation of the leukemia cells in six DBA/2 mice, one sex per experiment, the male mice weighing a minimum of 18 grams and the female mice weighing a minimum of 17 grams, and all of the test animals being within a three gram weight range. The test compound was administered by i.p. injections, in 0.1 ml. doses of diluted ascitic fluid (10^5 cells per dose), commencing one day after the tumor implant and continuing daily for nine days.
The test animals were weighed and survivors recorded on a regular basis during a thirty day test period. The ratio of survival time for the treated and control animals (T/C) was determined as a percentage.
The tests were carried out at varying dosage levels and with varying numbers of repetitions, depending upon the results obtained with each test compoud. […] A reproducible T/C of 150% or higher is considered significant activity.
The number of mice "cured", viz., those surviving from each animal test group after the thirty day test period, is indicated in parenthesis following the T/C percentage data in Table III below: […]

[2] = 50 mg/kg i.p. daily for nine days
[3] = 100 mg/kg i.p. daily for nine days
[4] = 200 mg/kg i.p. daily for nine days
[5] = Mus musculus, L1210, ip, 25 mg/kg i.p. daily for nine days, read-out: T/C % (survival time treated/control)
[6] = 25 mg/kg i.p. daily for nine days
[7] = Mus musculus, L1210, ip, 50 mg/kg i.p. daily for nine days, read-out: T/C % (survival time treated/control)
[8] = 400 mg/kg i.p. daily for nine days
[9] = Mus musculus, L1210, ip, 100 mg/kg i.p. daily for nine days, read-out: T/C % (survival time treated/control)
[10] = Mus musculus, L1210, ip, 200 mg/kg i.p. daily for nine days, read-out: T/C % (survival time treated/control)

Cn1c(O)c(C(=O)Nc2ccccc2)c(=O)[nH]c1=O [1-methyl derivative]
anti-tumor activity (in words) [1]: neither of its 1-methyl or 1-phenyl-substituted derivatives, exhibited anti-tumor activity

O=C(Nc1ccccc1)c1c(O)n(-c2ccccc2)c(=O)[nH]c1=O [1-phenyl derivative]
anti-tumor activity (in words) [1]: neither of its 1-methyl or 1-phenyl-substituted derivatives, exhibited anti-tumor activity

O=C1NC(=O)C(C(=O)Nc2ccccc2)C(=O)N1 [5-phenylcarbamoylbarbituric acid]
anti-tumor activity (in words) [1]: exhibited anti-tumor activity

O=C(Nc1ccc(Cl)cc1)c1c(O)[nH]c(=S)n(-c2ccccc2)c1=O [Control Q]
T/C % (survival time treated/control) (L1210 leukemia; [2]): 92%
T/C % (survival time treated/control) (L1210 leukemia; [3]): 112%
T/C % (survival time treated/control) (L1210 leukemia; [4]): Toxic
response vs control in vivo at 25 mg/kg (L1210 leukemia; [5]): 100%

O=C(Nc1ccc(Cl)cc1)c1c(O)[nH]c(=S)n(-c2ccccc2)c1=O [Control R]
T/C % (survival time treated/control) (L1210 leukemia; [6]): 106%
T/C % (survival time treated/control) (L1210 leukemia; [2]): 121%
T/C % (survival time treated/control) (L1210 leukemia; [3]): 88%
T/C % (survival time treated/control) (L1210 leukemia; [4]): Toxic

O=C(Nc1ccccc1)c1c(O)n(-c2ccccc2)c(=S)n(-c2ccccc2)c1=O [Control S]
response vs control in vivo at 25 mg/kg (L1210 leukemia; [5]): 97%
response vs control in vivo at 50 mg/kg (L1210 leukemia; [7]): 100%

O=C(Nc1ccccc1)c1c(O)n(-c2ccccc2)c(=S)n(-c2ccccc2)c1=O [Control T]
T/C % (survival time treated/control) (L1210 leukemia; [6]): 102%
T/C % (survival time treated/control) (L1210 leukemia; [2]): 109%
T/C % (survival time treated/control) (L1210 leukemia; [8]): 109%

CC(C)c1cccc(C(C)C)c1NC(=O)c1c(O)n(-c2ccccc2)c(=S)n(-c2ccccc2)c1=O [Control U]
response vs control in vivo at 25 mg/kg (L1210 leukemia; [5]): 101%
response vs control in vivo at 50 mg/kg (L1210 leukemia; [7]): 100%
response vs control in vivo at 100 mg/kg (L1210 leukemia; [9]): 104%
response vs control in vivo at 200 mg/kg (L1210 leukemia; [10]): 112%

COC(=O)c1ccccc1NC(=O)c1c(O)n(-c2ccccc2)c(=S)n(-c2ccccc2)c1=O [Control V]
T/C % (survival time treated/control) (L1210 leukemia; [3]): Toxic
T/C % (survival time treated/control) (L1210 leukemia; [4]): Toxic
response vs control in vivo at 25 mg/kg (L1210 leukemia; [5]): 102%
response vs control in vivo at 50 mg/kg (L1210 leukemia; [7]): 106%

O=c1[nH]c(=S)[nH]c(O)c1C(=S)Nc1ccccc1 [Control W]
response vs control in vivo at 25 mg/kg (L1210 leukemia; [5]): 101%
response vs control in vivo at 50 mg/kg (L1210 leukemia; [7]): 102%
response vs control in vivo at 100 mg/kg (L1210 leukemia; [9]): 94%
response vs control in vivo at 200 mg/kg (L1210 leukemia; [10]): 103%

O=c1[nH]c(O)c(C(=S)Nc2ccccc2)c(=O)[nH]1 [Control X]
response vs control in vivo at 25 mg/kg (L1210 leukemia; [5]): 105%
response vs control in vivo at 50 mg/kg (L1210 leukemia; [7]): 98%
response vs control in vivo at 100 mg/kg (L1210 leukemia; [9]): 97%
response vs control in vivo at 200 mg/kg (L1210 leukemia; [10]): 104%

O=C(Nc1ccccc1Cl)c1c(O)[nH]c(=S)[nH]c1=O [Example 2, N-(2-chlorophenyl)-1,2,3,4-tetrahydro-6-hydroxy-4-oxo-2-thioxo-5-pyrimidinecarboxamide]
number of mice cured (surviving after thirty day test period) (L1210 leukemia; 200 mg/kg i.p. daily for nine days, six mice): 1
T/C % (survival time treated/control) (L1210 leukemia; [8]): Toxic
response vs control in vivo at 25 mg/kg (L1210 leukemia; [5]): 106%
response vs control in vivo at 50 mg/kg (L1210 leukemia; [7]): 118%
response vs control in vivo at 100 mg/kg (L1210 leukemia; [9]): 127%

Cc1ccccc1NC(=O)c1c(O)[nH]c(=S)[nH]c1=O [Example 3, 1,2,3,4-tetrahydro-6-hydroxy-N-(2-methylphenyl)-4-oxo-2-thioxo-5-pyrimidine-carboxamide]
T/C % (survival time treated/control) (L1210 leukemia; [4]): Toxic
response vs control in vivo at 25 mg/kg (L1210 leukemia; [5]): 108%
response vs control in vivo at 50 mg/kg (L1210 leukemia; [7]): 112%

O=C(Nc1cccc(F)c1)c1c(O)[nH]c(=S)[nH]c1=O [Example 4, N-(3-fluorophenyl)-1,2,3,4-tetrahydro-6-hydroxy-4-oxo-2-thioxo-5-pyrmidinecarboxamide]
response vs control in vivo at 25 mg/kg (L1210 leukemia; [5]): 114%
response vs control in vivo at 50 mg/kg (L1210 leukemia; [7]): 114%
response vs control in vivo at 100 mg/kg (L1210 leukemia; [9]): 128%
response vs control in vivo at 200 mg/kg (L1210 leukemia; [10]): 155%

O=C(Nc1ccc(F)cc1)c1c(O)[nH]c(=S)[nH]c1=O [Example 5, N-(4-fluorophenyl)-1,2,3,4-tetrahydro-6-hydroxy-4-oxo-2-thioxo-5-pyrimidinecarboxamide]
T/C % (survival time treated/control) (L1210 leukemia; [4]): Toxic
activity in i.p.-implanted lymphoid leukemia test (in words) (L1210 leukemia; 3LE31, reproducible T/C of 150% or higher is considered significant activity): With the exception of the compound of Example 5, the materials of the other examples similarly exhibited significant activity
response vs control in vivo at 25 mg/kg (L1210 leukemia; [5]): 111%
response vs control in vivo at 50 mg/kg (L1210 leukemia; [7]): 112%
response vs control in vivo at 100 mg/kg (L1210 leukemia; [9]): 133%

COc1ccc(NC(=O)c2c(O)[nH]c(=S)[nH]c2=O)cc1 [Example 6, 1,2,3,4-tetrahydro-6-hydroxy-N-(4-methoxyphenyl)-4-oxo-2-thioxo-5-pyrimidinecarboxamide]
response vs control in vivo at 25 mg/kg (L1210 leukemia; [5]): 112%
response vs control in vivo at 50 mg/kg (L1210 leukemia; [7]): 108%
response vs control in vivo at 100 mg/kg (L1210 leukemia; [9]): 104%
response vs control in vivo at 200 mg/kg (L1210 leukemia; [10]): 127%
response vs control in vivo at 400 mg/kg (L1210 leukemia; Mus musculus, L1210, ip, 400 mg/kg i.p. daily for nine days, read-out: T/C % (survival time treated/control)): 127%

CCOc1ccc(NC(=O)c2c(O)[nH]c(=S)[nH]c2=O)cc1 [Example 7, N-(4-ethoxyphenyl)-1,2,3,4-tetrahydro-6-hydroxy-4-oxo-2-thioxo-5-pyrimidinecarboxamide]
T/C % (survival time treated/control) (L1210 leukemia; [4]): Toxic
response vs control in vivo at 6.25 mg/kg (L1210 leukemia; Mus musculus, L1210, ip, 6.25 mg/kg i.p. daily for nine days, read-out: T/C % (survival time treated/control)): 102%
response vs control in vivo at 12.5 mg/kg (L1210 leukemia; Mus musculus, L1210, ip, 12.5 mg/kg i.p. daily for nine days, read-out: T/C % (survival time treated/control)): 97%
response vs control in vivo at 25 mg/kg (L1210 leukemia; [5]): 115%
response vs control in vivo at 100 mg/kg (L1210 leukemia; [9]): 178%

O=C(Nc1ccccc1F)c1c(O)[nH]c(=S)[nH]c1=O [Example 8, N-(2-fluorophenyl)-1,2,3,4-tetrahydro-6-hydroxy-4-oxo-2-thioxo-5-pyrimidinecarboxamide]
response vs control in vivo at 25 mg/kg (L1210 leukemia; [5]): 148%
response vs control in vivo at 50 mg/kg (L1210 leukemia; [7]): 105%
response vs control in vivo at 100 mg/kg (L1210 leukemia; [9]): 128%
response vs control in vivo at 200 mg/kg (L1210 leukemia; [10]): 118%

O=C(Nc1ccc(F)cc1F)c1c(O)[nH]c(=S)[nH]c1=O [Example 9, N-(2,4-difluorophenyl)-1,2,3,4-tetrahydro-6-hydroxy-4-oxo-1-thioxo-5-pyrimidinecarboxamide]
response vs control in vivo at 25 mg/kg (L1210 leukemia; [5]): 113%
response vs control in vivo at 50 mg/kg (L1210 leukemia; [7]): 113%
response vs control in vivo at 100 mg/kg (L1210 leukemia; [9]): 114%
response vs control in vivo at 200 mg/kg (L1210 leukemia; [10]): 133%

COc1ccc(C)cc1NC(=O)c1c(O)[nH]c(=S)[nH]c1=O [Example 10, 1,2,3,4-tethydro-6-hydroxy-N-(2-methoxy-5-methylphenyl)-4-oxo-2-thioxo-5-pyrimidinecarboxamide]
response vs control in vivo at 25 mg/kg (L1210 leukemia; [5]): 110%
response vs control in vivo at 50 mg/kg (L1210 leukemia; [7]): 130%
response vs control in vivo at 100 mg/kg (L1210 leukemia; [9]): 113%
response vs control in vivo at 200 mg/kg (L1210 leukemia; [10]): 113%
